Tests used:
PI3KC3 (hVPS34) kinase = PI3KC3 (hVPS34) kinase (Homo sapiens (Human), UniProt Q8NEB9); assay: PI3KC3 (hVPS34) kinase assay, ADP-Glo luminescence detection; format: biochemical; details: PI:PS lipid substrate, 60 min at 30° C., read-out: VPS34 IC50
Method: The PI3KC3 (hVPS34) kinase reactions utilize ATP and produce ADP as a byproduct. The ADP production is quantified by ADP-Glo luminescence detection. The PI3KC3 (hVPS34) kinase assay was performed by Reaction Biology Corp. (Malvern, Pa.).
This was a 3-step reaction: First, the kinase reaction with lipid substrate was carried out in the presence of ATP. The reaction was then quenched, and the remaining ATP depleted with ADP-Glo™ reagent. Finally, the ADP was converted to ATP, which is measured using a luciferase/luciferin reaction. The luminescence was converted into μM ADP production based on ADP standard curves. The nonlinear regression to obtain the standard curve and IC50 values were performed using Graphpad Prism software.
The substrate (Phosphatidylinositol (PI): Phosphatidylserine (PS)) was added to freshly prepared reaction buffer (40 mM Tris-HCl (pH7.5), 3 μM Orthovanadate, 20 mM MgCl2, 2 mM DTT, 0.05% CHAPS, 1% DMSO). The PI3KC3 (hVPS34) kinase was delivered into the substrate solution with gentle mixing. Compounds were delivered in 100% DMSO into the kinase reaction mixture by Acoustic technology (Echo550; nanoliter range). The reaction was incubated for 20 min at room temperature. ATP was delivered into the reaction mixture to initiate the reaction. After incubating the mixture for 60 min at 30° C., the reaction was quenched with ADP-Glo reagent (Promega ADP Glo Kinase Assay kit #V9102) and incubated for 40 min at room temperature. Detection mixture (Promega ADP Glo Kinase Assay kit #V9102) was added and the reaction was incubated for 30 minutes. Luminescence was measured.

PI3Kα = PI3Kα (Homo sapiens (Human), UniProt P42336); assay: PI3Kα inhibition, ATP to ADP conversion by ADP-Glo kinase activity assay; format: biochemical; details: 25 μM PIP2:PS, 60 μM ATP, reaction time 30 minutes
Method: Inhibition of PI3Kα—Quantification of ATP to ADP conversion as a measure of PI3Kα activity. Active PI3Kα (Life Technologies), in the presence or absence of PI3Kα inhibitor, was reacted with PIP2:PS (Life Technologies), a substrate specifically optimized for use with Class I PI3 kinases, and ultrapure ATP (Promega). The conversion of ATP to ADP by PI3Kα was measured as luminescence signal via Promega ADP-Glo kinase activity assay. Assay was validated using published PI3Kα inhibitors LY294002, PI-103, BYL719, and GDC0198 as well as a DMSO vehicle control.
Compounds were prepared at 100× final concentration using a 12-point, 1:3 serial-dilution in DMSO, with DMSO control as the 12th point. Compound was then diluted in HEPES buffer (25 mM HEPES pH 7.5, 1 mM EGTA, 0.3% CHAPS) prior to addition to PI3Kα. Active PI3Kα diluted to 0.24 ng/μL (1.1 nM) in (50 mM HEPES pH 7.5, 6 mM MgCl2, 1 mM EGTA, 200 mM NaCl, 0.03% CHAPS, 8 mM DTT) was incubated with compound for 0 hr and 3 hr prior to the start of the reaction. 25 μM PIP2:PS and 60 μM ATP were diluted from stock solution (25 mM HEPES pH 7.5, 1 mM EGTA, 0.3% CHAPS) and added to initiate the PI3Kα reaction. Reaction time was 30 minutes. ATP to ADP conversion was measured in Luminescence Counts on DTX880 Plate Reader (Beckman Coulter). The IC50 of the compounds were reported using the GraphPad Prism software. Analytical method was non-linear regression, 4-parameter curve fit with bottom fit to validated PI3Kα inhibitor reference controls and no top fit (floating top).

PI3KC3 (hVPS34) kinase, sequence (Q8NEB9 whole entry): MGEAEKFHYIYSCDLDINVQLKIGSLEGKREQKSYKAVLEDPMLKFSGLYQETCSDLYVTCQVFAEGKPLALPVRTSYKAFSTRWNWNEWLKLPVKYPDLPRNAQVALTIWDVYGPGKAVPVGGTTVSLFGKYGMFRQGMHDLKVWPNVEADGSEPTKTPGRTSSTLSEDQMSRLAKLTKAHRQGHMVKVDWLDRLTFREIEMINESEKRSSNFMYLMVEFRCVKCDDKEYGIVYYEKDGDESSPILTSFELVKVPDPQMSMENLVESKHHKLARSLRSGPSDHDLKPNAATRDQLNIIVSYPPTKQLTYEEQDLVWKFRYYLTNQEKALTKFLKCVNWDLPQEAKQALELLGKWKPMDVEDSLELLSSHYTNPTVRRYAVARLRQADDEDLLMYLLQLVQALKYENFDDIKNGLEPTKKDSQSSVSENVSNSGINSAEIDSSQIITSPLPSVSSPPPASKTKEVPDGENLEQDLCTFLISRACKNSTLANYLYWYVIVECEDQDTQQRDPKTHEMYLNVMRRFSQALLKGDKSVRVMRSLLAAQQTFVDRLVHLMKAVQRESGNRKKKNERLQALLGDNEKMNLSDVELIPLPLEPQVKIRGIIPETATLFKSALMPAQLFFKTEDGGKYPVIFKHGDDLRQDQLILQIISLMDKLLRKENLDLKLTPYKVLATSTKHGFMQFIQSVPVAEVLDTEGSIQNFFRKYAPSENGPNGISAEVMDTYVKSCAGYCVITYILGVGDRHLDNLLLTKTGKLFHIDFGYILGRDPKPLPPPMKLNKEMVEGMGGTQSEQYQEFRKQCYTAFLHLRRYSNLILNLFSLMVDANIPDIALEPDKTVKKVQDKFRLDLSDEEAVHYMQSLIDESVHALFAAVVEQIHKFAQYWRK
PI3Kα, sequence (P42336 whole entry): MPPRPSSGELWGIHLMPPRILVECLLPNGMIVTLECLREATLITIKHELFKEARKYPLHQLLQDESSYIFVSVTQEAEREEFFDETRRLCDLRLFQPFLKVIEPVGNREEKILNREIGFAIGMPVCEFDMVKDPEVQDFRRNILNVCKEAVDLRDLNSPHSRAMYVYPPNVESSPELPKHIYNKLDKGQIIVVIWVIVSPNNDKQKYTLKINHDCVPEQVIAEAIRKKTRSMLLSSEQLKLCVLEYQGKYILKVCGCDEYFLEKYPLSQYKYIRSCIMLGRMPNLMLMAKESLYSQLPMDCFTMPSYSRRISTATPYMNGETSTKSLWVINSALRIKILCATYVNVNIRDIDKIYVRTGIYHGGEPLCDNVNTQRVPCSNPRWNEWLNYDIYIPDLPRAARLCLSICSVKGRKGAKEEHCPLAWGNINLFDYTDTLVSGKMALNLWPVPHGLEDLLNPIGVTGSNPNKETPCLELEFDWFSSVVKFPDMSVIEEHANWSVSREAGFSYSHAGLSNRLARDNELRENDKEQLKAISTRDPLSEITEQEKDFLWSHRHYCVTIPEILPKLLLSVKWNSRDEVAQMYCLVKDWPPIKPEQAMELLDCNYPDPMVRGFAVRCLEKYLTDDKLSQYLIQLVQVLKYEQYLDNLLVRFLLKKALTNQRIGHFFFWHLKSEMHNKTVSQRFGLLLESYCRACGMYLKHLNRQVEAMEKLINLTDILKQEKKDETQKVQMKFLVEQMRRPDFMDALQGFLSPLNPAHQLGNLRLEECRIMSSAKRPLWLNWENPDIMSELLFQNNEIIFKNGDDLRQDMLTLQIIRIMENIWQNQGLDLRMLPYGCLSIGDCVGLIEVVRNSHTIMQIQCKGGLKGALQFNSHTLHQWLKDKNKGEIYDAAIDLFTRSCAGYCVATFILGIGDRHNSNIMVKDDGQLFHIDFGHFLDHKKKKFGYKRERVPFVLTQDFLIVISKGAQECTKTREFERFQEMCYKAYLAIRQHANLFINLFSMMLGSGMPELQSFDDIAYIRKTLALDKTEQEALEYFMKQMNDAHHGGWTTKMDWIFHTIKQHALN
PI3Kα, sequence (P27986 whole entry partner): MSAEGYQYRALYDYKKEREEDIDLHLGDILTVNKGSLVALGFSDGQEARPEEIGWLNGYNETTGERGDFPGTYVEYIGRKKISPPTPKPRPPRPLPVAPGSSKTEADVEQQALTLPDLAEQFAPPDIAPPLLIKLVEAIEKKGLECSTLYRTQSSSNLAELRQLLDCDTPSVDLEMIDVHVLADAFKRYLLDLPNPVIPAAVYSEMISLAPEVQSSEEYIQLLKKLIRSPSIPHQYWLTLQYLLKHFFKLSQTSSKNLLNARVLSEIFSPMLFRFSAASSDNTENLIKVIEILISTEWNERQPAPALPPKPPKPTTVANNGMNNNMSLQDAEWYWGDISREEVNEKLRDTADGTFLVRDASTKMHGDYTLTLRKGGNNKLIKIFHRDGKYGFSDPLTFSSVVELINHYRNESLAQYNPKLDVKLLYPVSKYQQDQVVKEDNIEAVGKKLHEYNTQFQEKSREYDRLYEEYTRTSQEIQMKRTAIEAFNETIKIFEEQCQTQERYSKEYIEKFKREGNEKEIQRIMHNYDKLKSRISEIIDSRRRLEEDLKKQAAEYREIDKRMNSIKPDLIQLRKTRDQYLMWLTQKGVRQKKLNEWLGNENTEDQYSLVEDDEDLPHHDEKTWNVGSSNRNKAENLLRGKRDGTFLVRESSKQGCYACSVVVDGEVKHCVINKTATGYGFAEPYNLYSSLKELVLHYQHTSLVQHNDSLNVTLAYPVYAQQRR

SMILES | IC50 (PI3KC3 (hVPS34) kinase) [nM] | IC50 (PI3Kα) [nM]
Nc1ncc(-c2cc(N3CCOCC3)cc(S(=O)(=O)[C@@H]3CCOC3)c2)s1 [Example 1, (R)-5-(3-morpholino-5-((tetrahydrofuran-3-yl)sulfonyl)phenyl)thiazol-2-amine] | 3800 | 750
Nc1nc(C(F)(F)F)c(-c2cc(N3CCOCC3)cc(S(=O)(=O)[C@@H]3CCOC3)c2)s1 [Example 2, (R)-5-(3-morpholino-5-((tetrahydrofuran-3-yl)sulfonyl)phenyl)-4-(trifluoromethyl)thiazol-2-amine] | 2100 | 740
Nc1nnc(-c2cc(N3CCOCC3)cc(S(=O)(=O)c3ccccc3)c2)s1 [Example 3, 5-(3-morpholino-5-(phenylsulfonyl)phenyl)-1,3,4-thiadiazol-2-amine] | 1600 | 2200
Nc1nsc(-c2cc(N3CCOCC3)cc(S(=O)(=O)c3ccccc3)c2)n1 [Example 4, 5-(3-morpholino-5-(phenylsulfonyl)phenyl)-1,2,4-thiadiazol-3-amine] | 2200 | 11200
Nc1ncc(-c2cc(S(=O)(=O)c3ccccc3)cc(N3CCOCC3)n2)s1 [Example 5, 5-(6-morpholino-4-(phenylsulfonyl)pyridin-2-yl)thiazol-2-amine] | 81 | 502
Nc1nc(C(F)(F)F)c(-c2cc(S(=O)(=O)c3ccccc3)cc(N3CCOCC3)n2)s1 [Example 6, 5-(6-morpholino-4-(phenylsulfonyl)pyridin-2-yl)-4-(trifluoromethyl)thiazol-2-amine] | 287 | 5240
Cc1nc(N)sc1-c1cc(S(=O)(=O)c2ccccc2)cc(N2CCOCC2)n1 [Example 7, 4-methyl-5-(6-morpholino-4-(phenylsulfonyl)pyridin-2-yl)thiazol-2-amine] | 19 | 2300
Nc1ncc(-c2cc(Oc3ccccc3)cc(N3CCOCC3)n2)s1 [Example 8, 5-(6-morpholino-4-phenoxypyridin-2-yl)thiazol-2-amine] | 150 | 3420

Source: patent publication US11236079B2, “Morpholine derivates as inhibitors of Vps34” (Neuropore Therapies, Inc., priority 2018, dated 2022)
